From patent US9249116B2, “Enzyme-activating compounds and compositions” (The Board of Trustees of the University of Illinois, priority 2012, dated 2016)
Where two headings read alike, the source gives them in different places.

Tests used:
[1] = Liver microsome stability assay; assay type: in vitro ADME; settings: rat liver microsomes, 10 μM, LC/MS
Procedure: FIG. 4. Liver Microsome Stability Assay. Compounds (10 μM) incubated with liver microsomes for 3 h and quenched with MeCN containing internal standard, analyzed by LC/MS (280 nm). Next, the metabolic stability of the compounds was evaluated in rat liver microsomes. The compounds were evaluated for 3 hours at 10 μM, and the metabolites were observed by LC/MS.

mice = experiment: Assessment of toxicity in vivo; settings: mice; scale 0 to 3, or time of death
Excerpt: The level of toxicity was rated on a scale of 0 (no observable adverse effect) to 3 (severe toxicity, almost fatal).

[2] = system: U-937 cells (human lymphoma); experiment: 72 Hour IC50 cell death assay (sulforhodamine B); assay type: cell-based
Procedure: After the synthesis was complete, the biological activity of the compounds was evaluated.
U-937 human lymphoma cells were plated into the wells of 96 well plate at a density of 15,000 cells per well in 99 μL of RPMI 1640 growth media with 10% FBS and 1% pen-strep. To each well was added 1 μL of compound stock solutions in DMSO at varying concentrations such that the cells were treated with concentrations between 0 μM and 100 μM compound. Each concentration was tested in quintuplicate per plate. In each plate 5 wells received 20 μM doxorubicin as a positive death control and 5 wells received 1 μL of DMSO as a negative control.
After the 72 hour incubation period, the plates were analyzed using a Sulforhodamine B assay (Vichai and Kirtikara, Nat Protoc 2006, 1, 1112-1116). Specifically, to each well of the plate 25 μL of a 50% (w/v) solution of trichloroacetic acid in H2O was added and the plates were incubated for 4 hours at 4° C. The plates were then washed gently with water five times. The plates were allowed to air dry after which 100 μL of a 0.057% (w/v) Sulforhodamine B in a 1% (v/v) acetic acid solution was added to each well for 30 minutes at room temperature. The plates were gently washed 5 times with 1% (v/v) acetic acid and air dried. 200 μL of 10 mM Tris base (pH 10.4) was added to each well and the plates were placed on an orbital shaker for thirty minutes. The level of SRB was quantified fluorometrically at excitation and emission wavelengths 488 and 585 nm, respectively, on a Molecular Devices plate reader and the percent cell death calculated and normalized to the positive control (100% cell death) and the negative control (0% cell death). The percent cell death was averaged for each compound concentration and plotted as a function of compound concentration. The data were fit to a logistical dose response curve using Table curve 2D and the IC50 value was calculated. The experiment was repeated three times and the average of the calculated IC50 values was reported. The standard error of the mean (SEM) was determined and reported for the triplicate experiments.

[3] = read-out: U-937 72 h IC50 (μM), Table 1, U-937 cells, 72 h

Row | SMILES | RLM 3 h % Stability [1] | Mouse Toxicity (mice) | IC50 [2, 3] | IC50 ([2]; U-937, 72 h, read-out: U-937 72 h IC50 (μM))
1 | C=CCc1cccc(/C=N/NC(=O)CN2CCN(C(=O)c3ccccc3)CC2)c1O [Compound 3, N′-(3-allyl-2-hydroxybenzylidene)-2-(4-benzoylpiperazin-1-yl)acetohydrazide] | 89 ± 4% | 3 | 12.1 ± 1.3 µM | –
2 | C=CCc1cccc(/C=N/NC(=O)CN2CCN(Cc3ccc(C#N)cc3)CC2)c1O [Compound 4, N′-(3-allyl-2-hydroxybenzylidene)-2-(4-(4-cyanobenzyl)piperazin-1-yl)acetohydrazide] | 48 ± 2% | 1 | 13.7 ± 0.9 µM | –
3 | C=CCc1cccc(/C=N/NC(=O)CN2CCN(C(=O)c3ccc(C#N)cc3)CC2)c1O [Compound 5, N′-(3-allyl-2-hydroxybenzylidene)-2-(4-(4-cyanobenzoyl)piperazin-1-yl)acetohydrazide] | 90 ± 4% | death >72 h (greater than 72 hours post-treatment) | 13.1 ± 3.7 µM | –
4 | C=CCc1cccc(/C=N/NC(=O)CN2CCN(Cc3ccc(F)cc3)CC2)c1O [Compound 6, N′-(3-allyl-2-hydroxybenzylidene)-2-(4-(4-fluorobenzyl)piperazin-1-yl)acetohydrazide] | 31 ± 1% | 3 | 11.1 ± 2.1 µM | –
5 | C=CCc1cccc(/C=N/NC(=O)CN2CCN(C(=O)c3ccc(C(F)(F)F)cc3)CC2)c1O [Compound 9, N′-(3-allyl-2-hydroxybenzylidene)-2-(4-(4-(trifluoromethyl)benzoyl)piperazin-1-yl)acetohydrazide] | 85 ± 6% | – | – | –
6 | CCCc1cccc(/C=N/NC(=O)CN2CCN(C(=O)c3ccccc3)CC2)c1O [Compound 12, 2-(4-benzoylpiperazin-1-yl)-N′-(2-hydroxy-3-propylbenzylidene)acetohydrazide] | 71 ± 3% | – | 9.4 ± 1.3 µM | –
7 | CCCc1cccc(/C=N/NC(=O)CN2CCN(Cc3ccc(C(F)(F)F)cc3)CC2)c1O [Compound 17] | 15 ± 2% | – | – | –
8 | N#Cc1ccc(C(=O)N2CCN(CC(=O)N/N=C/c3cc(F)ccc3O)CC2)cc1 [Compound 23, 2-(4-(4-cyanobenzoyl)piperazin-1-yl)-N′-(5-fluoro-2-hydroxybenzylidene)acetohydrazide] | 88 ± 4% | – | – | 15.3 ± 1.3 µM
9 | O=C(CN1CCN(C(=O)c2ccc(F)cc2)CC1)N/N=C/c1cc(F)ccc1O [Compound 25, N′-(5-fluoro-2-hydroxybenzylidene)-2-(4-(4-fluorobenzoyl)piperazin-1-yl)acetohydrazide] | 86 ± 2% | – | 15.3 ± 0.8 µM | –
10 | C=CCc1cc(F)cc(/C=N/NC(=O)CN2CCN(Cc3ccc(F)cc3)CC2)c1O [Compound 33, N′-(3-allyl-5-fluoro-2-hydroxybenzylidene)-2-(4-(4-fluorobenzyl)piperazin-1-yl)acetohydrazide] | 57 ± 1% | – | 10.3 ± 4.1 µM | –
11 | CCCc1cc(F)cc(/C=N/NC(=O)CN2CCN(C(=O)c3ccc(C#N)cc3)CC2)c1O [Compound 41, 2-(4-(4-cyanobenzoyl)piperazin-1-yl)-N′-(5-fluoro-2-hydroxy-3-propylbenzylidene)acetohydrazide] | 66 ± 3% | – | – | –
12 | CCCc1cc(F)cc(/C=N/NC(=O)CN2CCN(Cc3ccc(C(F)(F)F)cc3)CC2)c1O [Compound 44, N′-(5-fluoro-2-hydroxy-3-propylbenzylidene)-2-(4-(4-(trifluoromethyl)benzyl)piperazin-1-yl)acetohydrazide] | 40 ± 1% | – | – | –

Continued, in another order:

Row | RLM 3 h % Stability [1] | SMILES | Mouse Toxicity (mice) | IC50 [2, 3] | IC50 ([2]; U-937, 72 h, read-out: U-937 72 h IC50 (μM))
13 | 16 ± 1% | C=CCc1cccc(/C=N/NC(=O)CN2CCN(Cc3ccc(C(F)(F)F)cc3)CC2)c1O [Compound 8, N′-(3-allyl-2-hydroxybenzylidene)-2-(4-(4-(trifluoromethyl)benzyl)piperazin-1-yl)acetohydrazide] | – | – | –
14 | 61 ± 2% | CCCc1cccc(/C=N/NC(=O)CN2CCN(Cc3ccc(S(N)(=O)=O)cc3)CC2)c1O [Compound 11, 4-((4-(2-(2-(2-hydroxy-3-propylbenzylidene)hydrazinyl)-2-oxoethyl)piperazin-1-yl)methyl)benzenesulfonamide] | – | – | –
15 | 30 ± 2% | CCCc1cccc(/C=N/NC(=O)CN2CCN(Cc3ccc(C#N)cc3)CC2)c1O [Compound 13, 2-(4-(4-cyanobenzyl)piperazin-1-yl)-N′-(2-hydroxy-3-propylbenzylidene)acetohydrazide] | – | 9 ± 1.2 µM | –
16 | 61 ± 3% | CCCc1cccc(/C=N/NC(=O)CN2CCN(C(=O)c3ccc(C#N)cc3)CC2)c1O [Compound 14, 2-(4-(4-cyanobenzoyl)piperazin-1-yl)-N′-(2-hydroxy-3-propylbenzylidene)acetohydrazide] | – | 12.8 ± 2.7 µM | –
17 | 69 ± 4% | CCCc1cccc(/C=N/NC(=O)CN2CCN(C(=O)c3ccc(F)cc3)CC2)c1O [Compound 16, 2-(4-(4-fluorobenzoyl)piperazin-1-yl)-N′-(2-hydroxy-3-propylbenzylidene)acetohydrazide] | – | 7.3 ± 0.9 µM | –
18 | 64 ± 1% | CCCc1cccc(/C=N/NC(=O)CN2CCN(C(=O)c3ccc(C(F)(F)F)cc3)CC2)c1O [Compound 18, N′-(2-hydroxy-3-propylbenzylidene)-2-(4-(4-(trifluoromethyl)benzoyl)piperazin-1-yl)acetohydrazide] | – | – | –
19 | 88 ± 1% | O=C(CN1CCN(C(=O)c2ccccc2)CC1)N/N=C/c1cc(F)ccc1O [Compound 21, 2-(4-benzoylpiperazin-1-yl)-N′-(5-fluoro-2-hydroxybenzylidene)acetohydrazide] | – | 15.7 ± 2.6 µM | –
20 | 89 ± 3% | C=CCc1cc(F)cc(/C=N/NC(=O)CN2CCN(Cc3ccc(S(N)(=O)=O)cc3)CC2)c1O [Compound 29, 4-((4-(2-(2-(3-allyl-5-fluoro-2-hydroxybenzylidene)hydrazinyl)-2-oxoethyl)piperazin-1-yl)methyl)benzenesulfonamide] | – | – | –
21 | 65 ± 2% | C=CCc1cc(F)cc(/C=N/NC(=O)CN2CCN(Cc3ccc(C#N)cc3)CC2)c1O [Compound 31, N′-(3-allyl-5-fluoro-2-hydroxybenzylidene)-2-(4-(4-cyanobenzyl)piperazin-1-yl)acetohydrazide] | – | 12.7 ± 2 µM | –
22 | 95 ± 4% | C=CCc1cc(F)cc(/C=N/NC(=O)CN2CCN(C(=O)c3ccc(C#N)cc3)CC2)c1O [Compound 32, N′-(3-allyl-5-fluoro-2-hydroxybenzylidene)-2-(4-(4-cyanobenzoyl)piperazin-1-yl)acetohydrazide] | – | – | –
23 | 49 ± 3% | C=CCc1cc(F)cc(/C=N/NC(=O)CN2CCN(Cc3ccc(C(F)(F)F)cc3)CC2)c1O [Compound 35, N′-(3-allyl-5-fluoro-2-hydroxybenzylidene)-2-(4-(4-(trifluoromethyl)benzyl)piperazin-1-yl)acetohydrazide] | – | – | –
24 | 90 ± 2% | C=CCc1cc(F)cc(/C=N/NC(=O)CN2CCN(C(=O)c3ccc(C(F)(F)F)cc3)CC2)c1O [Compound 36, N′-(3-allyl-5-fluoro-2-hydroxybenzylidene)-2-(4-(4-(trifluoromethyl)benzoyl)piperazin-1-yl)acetohydrazide] | – | – | –
25 | 62 ± 3% | CCCc1cc(F)cc(/C=N/NC(=O)CN2CCN(Cc3ccc(S(N)(=O)=O)cc3)CC2)c1O [Compound 38, 4-((4-(2-(2-(5-fluoro-2-hydroxy-3-propylbenzylidene)hydrazinyl)-2-oxoethyl)piperazin-1-yl)methyl)benzenesulfonamide] | – | – | –
26 | 49 ± 5% | CCCc1cc(F)cc(/C=N/NC(=O)CN2CCN(Cc3ccc(C#N)cc3)CC2)c1O [Compound 40, 2-(4-(4-cyanobenzyl)piperazin-1-yl)-N′-(5-fluoro-2-hydroxy-3-propylbenzylidene)acetohydrazide] | – | 11.2 ± 0.9 µM | –
27 | 48 ± 1% | CCCc1cc(F)cc(/C=N/NC(=O)CN2CCN(Cc3ccc(F)cc3)CC2)c1O [Compound 42, N′-(5-fluoro-2-hydroxy-3-propylbenzylidene)-2-(4-(4-fluorobenzyl)piperazin-1-yl)acetohydrazide] | – | 7.5 ± 0.7 µM | –
28 | 64 ± 5% | CCCc1cc(F)cc(/C=N/NC(=O)CN2CCN(C(=O)c3ccc(C(F)(F)F)cc3)CC2)c1O [Compound 45, N′-(5-fluoro-2-hydroxy-3-propylbenzylidene)-2-(4-(4-(trifluoromethyl)benzoyl)piperazin-1-yl)acetohydrazide] | – | – | –
